In US8404677B2, “Kinase inhibitors” (Genosco, priority 2009, dated 2013):

How the values were obtained:
[1] = system: TNF-α release in THP-1 cells, LPS stimulation; experiment: SYK independent TNF-α release assay (LPS stimulation); format: cell-based, human
Method: For SYK independent TNF-α release assay (i.e., via lipopolysaccharide (LPS)-stimulation), THP-1 cells derived from human monocytic cells were obtained from the American Type Culture Collection (ATCC, Manassas, Va.). This cell line was maintained with an RPMI medium (GIBCO™) containing 10 fetal bovine serum (FBS, GIBCO™) and 0.05 mM 2-mercaptoethanol. The THP-1 cells were seeded at 1×10^5 cells/100 μL/well into 96-well culture plates, and treated with lipopolysaccharide (1 μg/ml), and serially diluted compound was then added. After an 18-hour incubation period at 37° C., supernatants were collected for the determination of the TNF-α level by ELISA, and the remaining cells were subjected to an MTT assay to determine the cytotoxic effects of compound.

AURKA = target: T1, AURKA (Homo sapiens, UniProt O14965); experiment: In vitro kinase inhibition, Ambit Biosciences panel; format: binding; settings: lower numbers indicate stronger activities
T1 construct: purchased Ambit Biosciences
Method: (§1) Up to 518 different kinases have been identified in humans. They act on small molecules such as lipids, carbohydrates, amino acids, and nucleotides. To determine the scope of inhibitory effects of a representative compound of Formula (I) on known kinases, Compound 6 was tested against 104 commercially available kinases (Ambit Biosciences™) in vitro. 104 kinases included ABL1(E255K)-phosphorylated, ABL1(T315I)-phosphorylated, ABL1-phosphorylated, ACVR1B, ADCK3, AKT1, AKT2, ALK, AURKA, AURKB, AXL, BMPR2, BRAF, BRAF(V600E), BTK, CDK11, CDK2, CDK3, CDK7, CDK9, CHEK1, CSF1R, CSNK1D, CSNK1G2, DCAMKL1, DYRK1B, EGFR, EGFR(L858R), EPHA2, ERBB2, ERBB4, ERK1, FAK, FGFR2, FGFR3, FLT1, FLT3, FLT4, GSK3B, IGF1R, IKK-α, IKK-β, INSR, JAK2(JH1domain-catalytic), JAK3(JH1domain-catalytic), JNK1, JNK2, JNK3, KIT, KIT(D816V), KIT(V559D,T670I), LKB1, LRRK2, LRRK2(G2019S), MAP3K4, MAPKAPK2, MARK3, MEK1, MEK2, MET, MKNK1, MKNK2, MLK1, MTOR, p38-alpha, p38-beta, PAK1, PAK2, PAK4, PCTK1, PDGFRA, PDGFRB, PDPK1, PIK3C2B, PIK3CA, PIK3CG, PIM1, PIM2, PIM3, PKAC-alpha, PLK1, PLK3, PLK4, PRKCE, PYK2, RAFT, RET, RIOK2, ROCK2, RSK2, SNARK, SRC, SRPK3, SYK, TAK1, TGFBR1, TIE2, TRKA, TSSK1B, TYK2(JH1domain-catalytic), ULK2, VEGFR2, YANK3 and ZAP70.
(§2) Inhibition activity of Compound 6 was reported as percent control where lower numbers indicate stronger activities. […] Conventionally, the percent control of less than 35 is deemed to be significant inhibition of kinase activity as the numeric value 35 is frequently used as a threshold.

AXL = target: T2, AXL (Homo sapiens, UniProt P30530); experiment: as above; format: binding; settings: lower numbers indicate stronger activities
T2 construct: purchased Ambit Biosciences
Method: as §1, §2

FLT3 = target: T3, FLT3 (Homo sapiens, UniProt P36888); experiment: as above; format: binding; settings: lower numbers indicate stronger activities
T3 construct: purchased Ambit Biosciences
Method: as §1, §2

JAK2 = target: T4, JAK2 (Homo sapiens, UniProt O60674); experiment: as above; format: binding; settings: lower numbers indicate stronger activities
T4 construct: JAK2(JH1domain-catalytic), JAK3(JH1domain-catalytic); purchased Ambit Biosciences
Method: as §1, §2

JAK3 = target: T5, JAK3 (Homo sapiens, UniProt P52333); experiment: as above; format: binding; settings: lower numbers indicate stronger activities
T5 construct: JAK2(JH1domain-catalytic), JAK3(JH1domain-catalytic); purchased Ambit Biosciences
Method: as §1, §2

LRRK2 = target: T6, LRRK2 (Homo sapiens, UniProt Q5S007); experiment: as above; format: binding; settings: lower numbers indicate stronger activities
T6 construct: purchased Ambit Biosciences
Method: as §1, §2

LRRK2(G2019S) = target: T7, LRRK2(G2019S) (Homo sapiens, UniProt Q5S007, G2019S); experiment: as above; format: binding; settings: lower numbers indicate stronger activities
T7 construct: purchased Ambit Biosciences
Method: as §1, §2

RSK2 = target: T8, RSK2 (Homo sapiens, UniProt P51812); experiment: as above; format: binding; settings: lower numbers indicate stronger activities
T8 construct: RSK2 (Kin.Dom.1-N-terminal); purchased Ambit Biosciences
Method: as §1, §2

TYK2 = target: T9, TYK2 (Homo sapiens, UniProt P29597); experiment: as above; format: binding; settings: lower numbers indicate stronger activities
T9 construct: TYK2(JH1domain-catalytic); purchased Ambit Biosciences
Method: as §1, §2

HOP-92 = experiment: cells; format: cell-based; settings: HOP-92 (NSCLC)
KM12 = experiment: cells; format: cell-based; settings: KM12 (Colon Cancer)
SF-539 = experiment: cells; format: cell-based; settings: SF-539 (CNS Cancer)
SNB-75 = experiment: cells; format: cell-based; settings: SNB-75 (CNS Cancer)
SK-MEL-28 = experiment: cells; format: cell-based; settings: SK-MEL-28 (Melanoma)
MDA-MB-231/ATCC = experiment: cells; format: cell-based; settings: MDA-MB-231/ATCC (Breast Cancer)
T-47D = experiment: cells; format: cell-based; settings: T-47D (Breast Cancer)
[2] = Homo sapiens, read-out: LC50 (the source's name)

T9 sequence (P29597 897-1176 limits assumed): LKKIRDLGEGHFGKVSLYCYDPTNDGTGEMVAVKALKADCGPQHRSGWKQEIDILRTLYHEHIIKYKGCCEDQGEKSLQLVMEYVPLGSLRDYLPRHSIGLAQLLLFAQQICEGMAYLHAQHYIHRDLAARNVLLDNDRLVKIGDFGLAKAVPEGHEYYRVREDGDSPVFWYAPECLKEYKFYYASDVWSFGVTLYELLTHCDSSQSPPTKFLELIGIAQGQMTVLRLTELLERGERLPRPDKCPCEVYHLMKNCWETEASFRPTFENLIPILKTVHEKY
T5 sequence (P52333 822-1111 limits assumed): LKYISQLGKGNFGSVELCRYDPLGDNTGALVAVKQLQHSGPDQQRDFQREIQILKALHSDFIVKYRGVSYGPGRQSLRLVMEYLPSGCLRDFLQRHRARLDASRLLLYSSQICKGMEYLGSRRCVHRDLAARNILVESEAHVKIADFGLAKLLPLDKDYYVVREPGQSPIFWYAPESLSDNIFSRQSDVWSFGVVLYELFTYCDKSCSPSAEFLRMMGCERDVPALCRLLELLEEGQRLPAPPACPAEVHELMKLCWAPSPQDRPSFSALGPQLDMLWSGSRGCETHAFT
T8 sequence (P51812 68-327 limits assumed): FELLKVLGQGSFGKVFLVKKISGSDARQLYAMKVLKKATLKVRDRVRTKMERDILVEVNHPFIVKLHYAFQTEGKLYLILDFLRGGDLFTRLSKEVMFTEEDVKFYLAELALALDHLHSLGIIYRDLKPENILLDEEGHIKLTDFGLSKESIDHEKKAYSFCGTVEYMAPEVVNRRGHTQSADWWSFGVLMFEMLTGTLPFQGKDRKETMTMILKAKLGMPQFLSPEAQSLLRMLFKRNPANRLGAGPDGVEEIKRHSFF
T7 sequence (Q5S007 whole entry G2019S): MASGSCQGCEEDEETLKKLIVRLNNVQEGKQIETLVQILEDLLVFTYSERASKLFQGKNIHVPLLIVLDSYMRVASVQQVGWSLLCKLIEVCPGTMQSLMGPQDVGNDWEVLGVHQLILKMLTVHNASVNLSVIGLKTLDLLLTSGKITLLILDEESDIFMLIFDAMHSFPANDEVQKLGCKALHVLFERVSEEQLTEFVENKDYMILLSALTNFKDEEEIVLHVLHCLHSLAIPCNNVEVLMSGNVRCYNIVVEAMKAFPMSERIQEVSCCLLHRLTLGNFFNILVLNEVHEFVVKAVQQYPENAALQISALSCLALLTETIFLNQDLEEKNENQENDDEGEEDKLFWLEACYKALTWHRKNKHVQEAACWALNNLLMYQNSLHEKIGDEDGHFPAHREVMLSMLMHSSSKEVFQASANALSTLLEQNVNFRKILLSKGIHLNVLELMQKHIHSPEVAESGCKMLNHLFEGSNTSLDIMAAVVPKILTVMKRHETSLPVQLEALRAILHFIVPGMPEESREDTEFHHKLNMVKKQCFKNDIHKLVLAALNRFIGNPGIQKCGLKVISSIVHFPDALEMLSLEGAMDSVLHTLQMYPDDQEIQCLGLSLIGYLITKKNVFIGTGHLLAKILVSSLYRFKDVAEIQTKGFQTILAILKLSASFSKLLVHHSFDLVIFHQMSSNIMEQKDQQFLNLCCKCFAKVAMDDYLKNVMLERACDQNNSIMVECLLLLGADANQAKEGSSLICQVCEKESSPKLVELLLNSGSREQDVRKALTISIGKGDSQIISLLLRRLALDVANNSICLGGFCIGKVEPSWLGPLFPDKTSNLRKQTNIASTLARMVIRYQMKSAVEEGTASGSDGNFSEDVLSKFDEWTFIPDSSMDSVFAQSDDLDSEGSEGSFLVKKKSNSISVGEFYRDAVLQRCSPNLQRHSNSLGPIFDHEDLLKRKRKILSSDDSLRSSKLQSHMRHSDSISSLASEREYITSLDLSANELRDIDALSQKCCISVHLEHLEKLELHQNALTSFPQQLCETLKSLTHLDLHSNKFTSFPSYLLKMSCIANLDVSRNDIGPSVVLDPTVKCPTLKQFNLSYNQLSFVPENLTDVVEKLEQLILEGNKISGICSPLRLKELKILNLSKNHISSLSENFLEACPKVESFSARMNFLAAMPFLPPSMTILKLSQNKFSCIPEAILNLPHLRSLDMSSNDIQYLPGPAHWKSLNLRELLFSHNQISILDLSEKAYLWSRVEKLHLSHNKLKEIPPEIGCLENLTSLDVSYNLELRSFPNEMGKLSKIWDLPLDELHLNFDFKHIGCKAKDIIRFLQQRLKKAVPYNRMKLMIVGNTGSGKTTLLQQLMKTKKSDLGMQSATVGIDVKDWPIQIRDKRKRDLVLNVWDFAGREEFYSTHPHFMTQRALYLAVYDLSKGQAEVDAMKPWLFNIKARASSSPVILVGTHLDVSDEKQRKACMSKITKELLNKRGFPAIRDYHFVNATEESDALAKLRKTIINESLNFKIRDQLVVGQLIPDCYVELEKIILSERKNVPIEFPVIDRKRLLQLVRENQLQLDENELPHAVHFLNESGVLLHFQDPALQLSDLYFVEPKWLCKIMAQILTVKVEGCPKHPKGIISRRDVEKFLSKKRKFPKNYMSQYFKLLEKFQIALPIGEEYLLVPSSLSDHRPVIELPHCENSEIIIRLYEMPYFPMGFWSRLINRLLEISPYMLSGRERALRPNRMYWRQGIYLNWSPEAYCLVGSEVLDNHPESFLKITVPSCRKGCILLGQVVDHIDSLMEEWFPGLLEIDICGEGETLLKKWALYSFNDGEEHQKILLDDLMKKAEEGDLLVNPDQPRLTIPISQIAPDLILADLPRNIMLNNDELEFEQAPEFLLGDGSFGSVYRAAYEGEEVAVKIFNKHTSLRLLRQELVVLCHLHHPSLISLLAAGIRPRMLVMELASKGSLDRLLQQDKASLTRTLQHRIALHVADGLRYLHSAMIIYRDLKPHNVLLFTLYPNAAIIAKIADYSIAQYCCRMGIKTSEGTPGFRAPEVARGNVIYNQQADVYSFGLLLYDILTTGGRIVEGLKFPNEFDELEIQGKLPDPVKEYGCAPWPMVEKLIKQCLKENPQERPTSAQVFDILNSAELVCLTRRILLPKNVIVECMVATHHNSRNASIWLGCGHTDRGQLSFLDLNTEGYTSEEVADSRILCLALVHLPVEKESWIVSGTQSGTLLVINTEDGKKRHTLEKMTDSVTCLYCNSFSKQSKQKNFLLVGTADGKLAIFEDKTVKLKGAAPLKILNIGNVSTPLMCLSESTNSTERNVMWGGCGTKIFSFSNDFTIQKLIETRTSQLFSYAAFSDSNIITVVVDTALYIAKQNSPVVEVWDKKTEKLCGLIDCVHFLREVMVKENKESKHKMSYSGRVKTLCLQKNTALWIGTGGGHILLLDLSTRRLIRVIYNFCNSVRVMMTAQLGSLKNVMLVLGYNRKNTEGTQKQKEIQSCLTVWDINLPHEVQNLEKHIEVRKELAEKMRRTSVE
T1 sequence (O14965 whole entry): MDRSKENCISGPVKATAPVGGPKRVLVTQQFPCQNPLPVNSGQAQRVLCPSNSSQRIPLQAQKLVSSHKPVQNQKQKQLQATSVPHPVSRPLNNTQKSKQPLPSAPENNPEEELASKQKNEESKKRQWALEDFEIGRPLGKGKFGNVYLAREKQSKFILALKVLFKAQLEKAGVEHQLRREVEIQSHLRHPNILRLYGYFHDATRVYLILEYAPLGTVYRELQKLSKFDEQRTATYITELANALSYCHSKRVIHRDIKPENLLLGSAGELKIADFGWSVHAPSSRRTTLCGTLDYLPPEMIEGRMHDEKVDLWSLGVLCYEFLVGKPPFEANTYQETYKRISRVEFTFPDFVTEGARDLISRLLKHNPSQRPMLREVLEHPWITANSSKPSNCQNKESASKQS
T6 sequence (Q5S007 whole entry): as the sequence (Q5S007 whole entry G2019S) above, with S2019G counted along it
T2 sequence (P30530 26-894): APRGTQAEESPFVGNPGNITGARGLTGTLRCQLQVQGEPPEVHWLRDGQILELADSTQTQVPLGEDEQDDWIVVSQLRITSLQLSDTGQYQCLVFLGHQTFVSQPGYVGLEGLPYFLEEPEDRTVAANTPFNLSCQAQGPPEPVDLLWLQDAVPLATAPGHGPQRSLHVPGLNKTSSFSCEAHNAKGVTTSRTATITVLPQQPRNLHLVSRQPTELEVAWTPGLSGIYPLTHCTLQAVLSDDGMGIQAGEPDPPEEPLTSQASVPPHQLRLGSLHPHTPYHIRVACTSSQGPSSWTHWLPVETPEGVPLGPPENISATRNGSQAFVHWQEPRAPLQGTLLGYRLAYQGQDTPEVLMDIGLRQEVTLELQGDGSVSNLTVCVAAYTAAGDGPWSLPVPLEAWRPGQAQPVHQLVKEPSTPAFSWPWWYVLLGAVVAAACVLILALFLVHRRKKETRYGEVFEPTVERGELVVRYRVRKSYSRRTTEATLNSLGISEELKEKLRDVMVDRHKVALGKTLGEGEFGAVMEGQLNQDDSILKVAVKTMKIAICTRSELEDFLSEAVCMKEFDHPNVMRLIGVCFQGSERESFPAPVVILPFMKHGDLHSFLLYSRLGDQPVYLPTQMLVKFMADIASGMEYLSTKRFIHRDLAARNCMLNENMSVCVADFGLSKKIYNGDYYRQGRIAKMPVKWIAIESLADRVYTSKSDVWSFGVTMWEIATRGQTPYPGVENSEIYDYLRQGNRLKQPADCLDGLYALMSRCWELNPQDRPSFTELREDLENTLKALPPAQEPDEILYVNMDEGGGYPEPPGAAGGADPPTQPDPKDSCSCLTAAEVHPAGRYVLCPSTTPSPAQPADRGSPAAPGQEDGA
T4 sequence (O60674 849-1124 limits assumed): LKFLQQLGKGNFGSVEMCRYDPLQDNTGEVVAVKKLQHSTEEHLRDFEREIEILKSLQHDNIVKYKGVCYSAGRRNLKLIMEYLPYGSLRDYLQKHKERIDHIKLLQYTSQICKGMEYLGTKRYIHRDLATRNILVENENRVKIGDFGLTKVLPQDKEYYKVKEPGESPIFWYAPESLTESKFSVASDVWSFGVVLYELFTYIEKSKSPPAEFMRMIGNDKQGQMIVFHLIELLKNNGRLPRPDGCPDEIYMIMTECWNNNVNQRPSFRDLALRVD

Structure (SMILES): O=c1[nH]ccc2nc(N3CCC(O)CC3)nc(Nc3cccc(C(F)(F)F)c3)c12 [Compound 6, 2-(4-hydroxypiperidin-1-yl)-4-(3-(trifluoromethyl)phenylamino)pyrido[4,3-d]pyrimidine-5(6H)-one]
- inhibition at 0.3 µM ([1]; Homo sapiens, LPS stimulation, At 0.3 μM, THP-1, read-out: Inhibition of TNF-α Release (percentage inhibition)): 58%
- inhibition at 1 µM ([1]; Homo sapiens, LPS stimulation, At 1 μM, THP-1, read-out: Inhibition of TNF-α Release (percentage inhibition)): 68.9%
- percentage inhibition of TNF-α release compared with dexamethasone ([1]; LPS stimulated release): greater than or equal to those exhibited by dexamethasone
- % inhibition (reported as percent control) (AURKA): 31%
- % inhibition (reported as percent control) (AXL): 11%
- % inhibition (reported as percent control) (FLT3): 28%
- % inhibition (reported as percent control) (JAK2): 3%
- % inhibition (reported as percent control) (JAK3): 4.4%
- % inhibition (reported as percent control) (LRRK2): 2.2%
- % inhibition (reported as percent control) (LRRK2(G2019S)): 2.2%
- % inhibition (reported as percent control) (RSK2): 18%
- % inhibition (reported as percent control) (TYK2): 16%
- TGI (HOP-92): 100 µM
- GI50 (HOP-92; Homo sapiens): 100 µM
- IC50 (HOP-92; Homo sapiens): ≥ 100 µM
- CC50 (HOP-92; [2]): 100 µM
- GI50 (KM12; Homo sapiens): 1.45 µM
- IC50 (KM12; Homo sapiens): 2.69 µM
- CC50 (KM12; [2]): 24 µM
- TGI (KM12): 5.37 µM
- GI50 (SF-539; Homo sapiens): 5.25 µM
- IC50 (SF-539; Homo sapiens): 13.5 µM
- CC50 (SF-539; [2]): 100 µM
- TGI (SF-539): 38.9 µM
- GI50 (SNB-75; Homo sapiens): 5.75 µM
- IC50 (SNB-75; Homo sapiens): 77.6 µM
- CC50 (SNB-75; [2]): 100 µM
- TGI (SNB-75): 81.3 µM
- GI50 (SK-MEL-28; Homo sapiens): 4.68 µM
- IC50 (SK-MEL-28; Homo sapiens): 11 µM
- CC50 (SK-MEL-28; [2]): 50.1 µM
- TGI (SK-MEL-28): 17.4 µM
- GI50 (MDA-MB-231/ATCC; Homo sapiens): 12.3 µM
- IC50 (MDA-MB-231/ATCC; Homo sapiens): ≥ 100 µM
- CC50 (MDA-MB-231/ATCC; [2]): 100 µM
- TGI (MDA-MB-231/ATCC): 100 µM
- GI50 (T-47D; Homo sapiens, T47D): 3.09 µM
- IC50 (T-47D; Homo sapiens, T47D): 8.51 µM
- CC50 (T-47D; Homo sapiens, T47D, read-out: LC50 (the source's name)): 100 µM
- TGI (T-47D): 26.3 µM
